pIC50: −log10 of the molar value.
Assays:
[1] = molecular target: T1, lysine methyltransferase SET8 (Homo sapiens, UniProt Q9NQR1); assay: SET8 methyltransferase inhibitor screening assay kit (Cayman), fluorescence; format: biochemical; conditions: incubation at 37° C. for 10 min; inhibitor concentration not given
T1 construct: purchased Cayman Company
T1 sequence (Q9NQR1 1-393): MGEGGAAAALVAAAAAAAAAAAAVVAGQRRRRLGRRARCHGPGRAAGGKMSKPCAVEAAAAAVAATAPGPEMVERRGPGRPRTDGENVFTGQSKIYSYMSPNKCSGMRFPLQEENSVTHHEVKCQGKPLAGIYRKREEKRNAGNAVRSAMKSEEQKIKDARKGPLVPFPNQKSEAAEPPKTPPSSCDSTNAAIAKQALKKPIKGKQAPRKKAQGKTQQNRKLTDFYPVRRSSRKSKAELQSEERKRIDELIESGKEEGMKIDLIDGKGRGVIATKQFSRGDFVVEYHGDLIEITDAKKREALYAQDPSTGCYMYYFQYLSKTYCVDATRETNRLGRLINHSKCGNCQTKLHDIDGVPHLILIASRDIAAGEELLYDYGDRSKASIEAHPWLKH
Protocol: The steps of activity detection are completely based on the SET8 methyltransferase inhibitor screening assay kit of Cayman Company. In short, reagents in the kit are added to the 96-well plate to be tested according to the Table A below.
Then 10 μL of SET8 albumen protein is added to each well, and the reaction begins. After incubation at 37° C. for 10 min, the fluorescence intensity (A) value is measured at the excitation wavelength of 535 nm and the […] of 590 nm. the inhibition rate of the compound is calculated according to the following formula: Inhibition rate %=(Anormal−Asample)/)Normal*100%, and the inhibition rate of each inhibitor on lysine methyltransferase is shown in Table 1.

glioma cell line SH-SY5Y = assay: CCK-8 cell proliferation inhibition test, SH-SY5Y; format: cell-based; conditions: Homo sapiens, 48 h; for inhibition at 100 µM: read-out: IC % for 100 μM; for pIC50: CCK-8
Protocol: (§1) 1. Experimental Method: […] cell line SH-SY5Y, colorectal cancer cell line SW480 and liver cancer cell line HepG2 are respectively cultured in an RPMI-1640 medium containing 10% calf serum at 37° C. in a 5% CO2 incubator. The […] method is adopted for cell proliferation inhibition test, and the main operation is as follows: taking the tumor cell line in the logarithmic phase, digesting with 0.25% trypsin, preparing an RPMI-1640 medium containing 10% newborn calf serum into a cell suspension of 6×10^4 cells/mL, and inoculating the cell suspension into a 96-well plate, with 100 μL per well. Culturing at 37° C. and 5% CO2 saturated humidity for 12 h. After adherence, absorbing the culture supernatants in the wells, and adding the sample solution prepared from the RPMI-1640 medium containing 1% calf serum to each well so that the final concentrations of the samples are 100 μM, 30 μM, 10 μM, 3 μM, 1 μM, and 0.3 μM respectively. With 3 wells in parallel for each concentration, continuing culturing for 48 h, then adding 10 μL of CCK-8 solution (Dalian Meilun, MA0218) to each well, and continuing incubating at 37° C. and 5% CO2 for 4 h. Selecting 470 nm on the enzyme-linked immunosorbent assay apparatus to measure the light absorption value of each well, and setting a blank group (only adding a culture solution containing cells) and a control group (using the culture solution to replace drugs) to calculate the cell proliferation inhibition rate. Inhibition rate (%)=(1−average OD value of 3 wells in experimental group/average OD value of 3 wells in control group)×100%. With the inhibition rate as an ordinate, a regression curve is drawn to calculate the IC50 value of the sample. Graphpad prism 7.0 software are adopted for data processing and statistical analysis by.

[2] = test system: colorectal cancer cell line SW480; assay: CCK-8 cell proliferation inhibition test, SW480; format: cell-based; conditions: for pIC50: Homo sapiens, SW480, 48 h, CCK-8; for IC % for 100 μM: SW480, 100 μM, 48 h; for tumor cell proliferation inhibitory activity (in words): SW480, summary of Table 2
Protocol: as §1

[3] = test system: liver cancer cell line HepG2; assay: CCK-8 cell proliferation inhibition test, HepG2; format: cell-based; conditions: for IC % for 100 μM: HepG2, 100 μM, 48 h; for tumor cell proliferation inhibitory activity (in words): HepG2, summary of Table 2; for pIC50: Homo sapiens, HepG2, 48 h, CCK-8
Protocol: as §1

| Compound | Inhibition Rate (%) [1] [%] | pIC50 (glioma cell line SH-SY5Y) | pIC50 [2] | pIC50 [3] | inhibition at 100 µM (glioma cell line SH-SY5Y) [%] | IC % for 100 μM [2] [%] | tumor cell proliferation inhibitory activity (in words) [2] | IC % for 100 μM [3] [%] | tumor cell proliferation inhibitory activity (in words) [3] |
| --- | --- | --- | --- | --- | --- | --- | --- | --- | --- |
| COc1ccc(Cn2nc(-c3ccccc3)nc2C2CNCCO2)cc1 (stereo not drawn) [Compound 13, 2-(1-(4-methoxybenzyl)-3-phenyl-1H-1,2,4-triazol-5-yl)morpholine] | 32.5 | 3.86 |  |  | 37.8 |  |  |  |  |
| COc1ccc(Cc2nc(C3CCCCO3)n(C3CCN(C)CC3)n2)cc1 (stereo not drawn) [Compound 10, 4-(3-(4-methoxybenzyl)-5-(tetrahydro-2H-pyran-2-yl)-1H-1,2,4-triazol-5-yl)-1-methylpiperidin] | 43.6 | 3.91 |  |  | 43.3 |  |  |  |  |
| COc1ccc(Cc2nc(C3CCCCC3)n(Cc3ccc(OC)cc3)n2)cc1 [Compound 21, 5-cyclohexyl-1,3-dis(4-methoxybenzyl)-1H-1,2,4-triazole] | 43.7 | 3.95 |  |  | 46.2 |  |  |  |  |
| CN1CCC(n2nc(-c3ccccc3)nc2C2CNCCO2)CC1 (stereo not drawn) [Compound 15, 2-(1-(1-methylpiperidin-4-yl)-3-phenyl-1H-1,2,4-triazol-5-yl)morpholine] | 53.9 | 4.02 |  |  | 52.3 |  |  |  |  |
| COc1ccc(Cc2nc(C3CNCCO3)n(C3CCN(C)CC3)n2)cc1 (stereo not drawn) [Compound 1, 2-(3-(4-methoxybenzyl)-1-(1-methylpiperidin-4-yl)-1H-1,2,4-triazol-5-yl)morpholine] | 58.4 | 4.02 |  |  | 52.5 |  |  |  |  |
| COc1ccc(Cc2nc(C(C)(C)C)n(C3CCN(C)CC3)n2)cc1 [Compound 19] | 45.2 | 3.93 |  |  | 44.8 |  |  |  |  |
| Cc1ccc(-c2nc(C3CNCCO3)n(C3CCN(C)CC3)n2)cc1 (stereo not drawn) [Compound 16, 2-(1-(1-methylpiperidin-4-yl)-3-(p-methylphenyl)-1H-1,2,4-triazol-5-yl)morpholine] | 54.8 | 4.03 |  |  | 52.8 |  |  |  |  |
| COc1ccc(Cc2nc(C3CCCCC3)n(C3CCN(C)CC3)n2)cc1 [Compound 18, 4-(5-cyclohexyl-3-(4-methoxybenzyl)-1H-1,2,4-triazol-5-yl)-1-methylpiperidin] | 43.8 | 3.90 |  |  | 41.9 |  |  |  |  |
| COc1ccc(Cc2nc(CN)n(C3CCN(C)CC3)n2)cc1 [Compound 11, (3-(4-methoxybenzyl)-1-(1-methylpiperidin-4-yl)-1H-1,2,4-triazol-5-yl)methylamine] | 36.8 | 3.88 |  |  | 39.9 |  |  |  |  |

The remaining compounds from weak to strong by pIC50 (glioma cell line SH-SY5Y), led by results:

| Inhibition Rate (%) [1] [%] | pIC50 (glioma cell line SH-SY5Y) | pIC50 [2] | pIC50 [3] | Compound | inhibition at 100 µM (glioma cell line SH-SY5Y) [%] | IC % for 100 μM [2] [%] | tumor cell proliferation inhibitory activity (in words) [2] | IC % for 100 μM [3] [%] | tumor cell proliferation inhibitory activity (in words) [3] |
| --- | --- | --- | --- | --- | --- | --- | --- | --- | --- |
| 59.2 | 4.03 |  |  | CN1CCC(n2nc(Cc3ccccc3)nc2C2CNCCO2)CC1 (stereo not drawn) [Compound 14, 2-(3-benzyl-1-(1-methylpiperidin-4-yl)-1H-1,2,4-triazol-5-yl)morpholine] | 53.2 |  |  |  |  |
| 58.3 | 4.04 |  |  | Cc1cccc(-c2nc(C3CNCCO3)n(C3CCN(C)CC3)n2)c1 (stereo not drawn) [Compound 17, 2-(1-(1-methylpiperidin-4-yl)-3-(m-methylphenyl)-1H-1,2,4-triazol-5-yl)morpholine] | 53.7 |  |  |  |  |
| 70.2 | 4.09 |  |  | COc1ccc(Cc2nc(C3CNCCO3)n(-c3cccc(C)c3)n2)cc1 (stereo not drawn) [Compound 5, 2-(3-(4-methoxybenzyl)-1-(m-methylphenyl)-1H-1,2,4-triazol-5-yl)morpholine] | 57.1 |  |  |  |  |
| 71.5 | 4.10 |  |  | COc1ccc(Cc2nc(C3CNCCO3)n(-c3ccccc3)n2)cc1 (stereo not drawn) [Compound 4, 2-(3-(4-methoxybenzyl)-1-phenyl-1H-1,2,4-triazol-5-yl)morpholine] | 57.8 |  |  |  |  |
| 70.8 | 4.11 |  |  | COc1ccc(Cc2nc(C3CNCCO3)n(-c3cnccn3)n2)cc1 (stereo not drawn) [Compound 7, 2-(3-(4-methoxybenzyl)-1-(pyrazin-2-yl)-1H-1,2,4-triazol-5-yl)morpholine] | 57.9 |  |  |  |  |
| 72.3 | 4.11 |  |  | COc1ccc(Cc2nc(C3CN(Cc4ccccc4)CCO3)n(C3CCN(C)CC3)n2)cc1 (stereo not drawn) [Compound 9, 4-benzyl-2-(3-(4-methoxybenzyl)-1-(1-methylpiperidin-4-yl)-1H-1,2,4-triazol-5-yl)morpholine] | 58.5 |  |  |  |  |
| 70.3 | 4.12 |  |  | COc1ccc(Cc2nc(C3CNCCO3)n(-c3ccccn3)n2)cc1 (stereo not drawn) [Compound 6, 2-(3-(4-methoxybenzyl)-1-(pyridin-2-yl)-1H-1,2,4-triazol-5-yl)morpholine] | 58.6 |  |  |  |  |
| 69.3 | 4.14 |  |  | COc1ccc(Cc2nc(C3CNCCO3)n(C)n2)cc1 (stereo not drawn) [Compound 8, 2-(3-(4-methoxybenzyl)-1-methyl-1H-1,2,4-triazol-5-yl)morpholine] | 59.5 |  |  |  |  |
| 67.8 | 4.14 |  |  | COc1ccc(Cc2nc(C3CCCCO3)n(Cc3ccc(OC)cc3)n2)cc1 (stereo not drawn) [Compound 12, 1,3-bis(4-methoxybenzyl)-5-(tetrahydro-2H-pyran-2-yl)-1H-1,2,4-triazole] | 60.1 |  |  |  |  |
| 70.0 | 4.65 | 4.74 | 4.72 | COc1ccc(Cc2nc(C3CNCCO3)n(C3CCCCC3)n2)cc1 (stereo not drawn) [Compound 3, 2-(1-cyclohexyl-3-(4-methoxybenzyl)-1H-1,2,4-triazol-5-yl)morpholine] | 76.5 | 73.2 | good tumor cell proliferation inhibitory activity | 48.8 | good tumor cell proliferation inhibitory activity |
| 74.2 | 4.86 | 4.79 | 4.75 | COc1ccc(Cc2nc(C3CNCCO3)n(Cc3ccc(OC)cc3)n2)cc1 (stereo not drawn) [Compound 2, 2-(1,3-bis(4-methoxybenzyl)-1H-1,2,4-triazol-5-yl)morpholine] | 78.3 | 75.8 | good tumor cell proliferation inhibitory activity | 51.5 | good tumor cell proliferation inhibitory activity |
| 76.9 | 4.98 | 4.95 | 4.87 | COc1ccc(Cc2nc(C)n(C3CCN(C)CC3)n2)cc1 [Compound 20] | 84.7 | 79.6 | good tumor cell proliferation inhibitory activity | 68.7 | good tumor cell proliferation inhibitory activity |

From patent US12281107B2, “SET8 lysine methyltransferase inhibitor and preparation method and application thereof” (HAINAN YILING MEDICAL INDUSTRY & DEVELOPMENT Co., Ltd., priority 2019, dated 2025)
